# What was measured:
# PEAK1 protein = experiment: Western blot PEAK1; type: cell-based, mouse, human; details: GC7 0.1 μM to 100 μM, 48 hours; 4T1, 67NR and MCF10CA1a cells
# Protocol: (§1) The inventors sought to determine if the decrease in cell viability is due to the inhibition of post translational modification of eIF5A. To test this, all cell lines were treated with GC7 at 100 μM for 48 hours—which were the time point and concentration at which a decrease in cell viability was seen (FIG. 2B). The inventors then collected, performed a western blot and immunoblotted for hypusine, total eIF5A and β-actin as a loading control (FIG. 3A). […] To test if this effect is dose-dependent, 4T1, 67NR and MCF10CA1a cells were treated with various concentrations of GC7 ranging from 0.1 μM to 100 μM. Protein lysates were then collected after 48 hours of treatment and performed a western blot. […] To validate this in breast cancer cells, the inventors immunoblotted for PEAK1 as well as E-cadherin, hypusine, total eIF5A and β-actin as a loading control (FIG. 3B). […] The inventors next looked at cell viability at lower concentrations of GC7, such as 1 μM and 10 μM, where a decrease in hypusinated eIF5A is still achieved but the decrease in cell viability is not as great in lower concentrations that do still target hypusinated eIF5A (FIG. 3C).
# (§2) Cell lines were plated in a 6 well plate at 1e5 cells/mL and left to attach overnight. […] Protein concentrations were determined using Bradford Assay. […] Band intensity graphs were quantified using Fiji software after image thresholding.
# [1] = tested on: human triple negative breast cancer cells; experiment: Cell proliferation assay and hypusine western blot, response to GC7; type: cell-based; details: FIGS. 2A and 3A
# Protocol: Cell lines were plated in a 6 well plate at 1e5 cells/mL and left to attach overnight. Cells were then treated if necessary then lysed using Radioimmunoprecipitation assay (RIPA) buffer containing phosphatase and protease inhibitors and left to rotate at 4° C. for at least 3 hours. Lysates were then cleared by centrifugation at 12,000 RPM for 10 minutes at 4° C. Protein concentrations were determined using Bradford Assay. 4-12% Bis-Tris […] gels were used to run protein lysates at 20 μg of protein that were stained with NuPage LDS Sample Buffer. Gels were then transferred onto nitrocellulose membranes and exposed to primary antibody solutions at the following concentrations for each indicated antibody. PEAK1 (Millipore 1:400), E-cadherin (Cell Signaling 1:1,000), Hypusine (Thermo Scientific 1:1,000), eIF5A (Thermo Scientific 1:1,000) and β-actin (Pro-Sci 1:1,000). Secondary antibodies were used at a 1:5,000-1:10,000 dilution. Band intensity graphs were quantified using Fiji software after image thresholding.
# The CellTiter 96® AQueous One Solution (Promega) was used to perform cell proliferation experiments. Cells were plated at 5e3 cells/mL at 200 μL/well in a 96-well plate and allowed to attach overnight. […] Absorbance readings were measured at 490 nm wavelength at 1.5, 2 and 3 hours (absorbance is directly proportional to the number of living cells).
# [2] = tested on: eIF5A localization in 67NR cells; experiment: Immunofluorescence, subcellular localization of total eIF5A; type: cell-based, mouse; details: 1 and 10 μM GC7, 48 hours
# Protocol: Thus, we interrogated the subcellular localization of eIF5A protein using immunofluorescent staining under control as well as 1 and 10 μM GC7 treatment conditions in triple negative breast cancer lines (FIGS. 12A and 12B).
# Cells were plated at 1e4 cells/mL at 4 mL in a 6-well plate containing a sterile glass coverslip and allowed to attach overnight. Cells were then treated with appropriate inhibitors at indicated concentrations and time-points. Cells were first fixed using 4% paraformaldehyde for 20 minutes. Cells were then subjected to Triton-X to permeabilize the cells before treatment with specific antibodies in 2% BSA in PBS. After primary antibody incubation for 90 minutes, cells were washed with PBS three times before incubating with secondary antibodies in 2% BSA in PBS for 1 hour. Cells were again washed with PBS three times before set overnight staining with DAPI. Cells were then imaged using a Leica DMI6000 inverted microscope at 100× magnification.
# [3] = tested on: FOXP3+ T regulatory cell populations; details: increasing concentrations of GC7, type 1 diabetic mice in vivo; cited from earlier work
# 67NR cells = experiment: Cell proliferation assay (CellTiter 96 AQueous One, MTS); type: cell-based, mouse
# Description: (§3) The next research questions revolved around asking how TGFβ is regulating eIF5A and what other proteins might be involved to completely block TGFβ-induced EMT. This led to histone deacetylase enzyme 6 (HDAC6). HDAC6 has been previously reported to be responsible for the deacetylation of eIF5A in the nucleus in order to make it readily available for hypusination and later transport out in the cytoplasm for functioning as a translation factor. To determine if it were possible to further increase the efficacy or potency of GC7, the inventors co-treated with Tubastatin A (an HDAC6 inhibitor) in 4T1 and 67NR cells as well as MDA-MB-468 cells which initially were not very sensitive to GC7. Triple negative human breast cancer cell line, […], was also used to see if another cell line representative of this breast cancer subtype was sensitive towards DHPS and HDAC6 inhibition. (FIGS. 5A and 5B). Here, are shown cell viability graphs for these four cell lines pretreated with GC7 at 1 μM and after 12 hours were exposed to various concentrations of Tubastatin A (TubA) ranging from 0.1 nM to 100 μM. […] MDA-MB-468 and BT549 cells remained to be insensitive to TubA with or without GC7 pretreatment (FIG. 5A). Next, the inventors performed the opposite cell viability experiment in which these four cell lines were pretreated with TubA at 1 μM and then exposed these cells to various concentrations of GC7 ranging from 0.1 nM to 1 mM. […] 4T1 cells were treated with TubA at 10 μM, GC7 at 10 μM or both drugs simultaneously for 48, 72 and 96 hours. […] To test this, the inventors looked further into the changes of eIF5A localization when treating with TubA, GC7 or both drugs simultaneously. In FIG. 5D is shown immunofluorescence staining of 4T1 cells treated with TubA at 10 μM, GC7 at 10 μM or both drugs at those same concentrations for 48 hours. […] DAPI was used to stain the nuclei shown in the […] channel and phase-contrast images are shown as reference (FIG. 5D). […] Protein lysates were also collected at the same time point described in FIG. 5D. Twenty μg of protein for each condition was run on a Bis-Tris […] gel then transferred onto a nitrocellulose membrane before staining total protein using Ponceau S (FIG. 5E).
# (§4) The CellTiter 96® AQueous One Solution (Promega) was used to perform cell proliferation experiments. Cells were plated at 5e3 cells/mL at 200 μL/well in a 96-well plate and allowed to attach overnight. Cells were then treated with indicated drugs the next day at various concentrations. After 72 hours of drug treatments, 40 μL of AQueous One solution was added to each well. Absorbance readings were measured at 490 nm wavelength at 1.5, 2 and 3 hours (absorbance is directly proportional to the number of living cells).
# 4T1 cells = experiment: as above; type: cell-based, mouse
# Description: as §3, §4
# hypusinated eIF5A = experiment: Western blot hypusine versus total eIF5A; type: cell-based, mouse, human
# Protocol: as §1, §2
# [4] = TubA 1 μM pretreatment, GC7 0.1 nM to 1 mM
compound,measurement,setting,value
"N=C(N)NCCCCCCCN.O=S(=O)(O)O [GC7, N1-Guanyl-1,7-diaminoheptane]",PEAK1 protein expression,PEAK1 protein,striking down regulation of PEAK1 protein in a dose-dependent manner
same,sensitivity to GC7 treatment,[1],insensitive
same,nuclear depletion of eIF5A,[2],Nuclear depletion of eIF5A was observed
same,FOXP3+ T regulatory cell populations,[3],significant reduction in FOXP3+ T regulatory cell populations
same,efficacy after GC7 treatment (cell viability),"67NR cells; 72 hours, 0.1 nM→1 mM",largest efficacy
same,change of potency of GC7 by TubA pretreatment (cell viability),67NR cells; [4],this effect was not seen in the three other cell lines
same,efficacy after GC7 treatment (cell viability),"4T1 cells; 72 hours, 0.1 nM→1 mM",largest efficacy
same,change of potency of GC7 by TubA pretreatment (cell viability),4T1 cells; [4],subtly decreased
same,decrease in hypusinated eIF5A protein activity,"hypusinated eIF5A; 100 μM GC7, 48 hours, 4T1, 67NR, MCF10AT1k, MCF10CA1h and MCF10CA1a",largest decrease in hypusinated eIF5A protein activity
same,hypusinated eIF5A levels (band intensity ratio to total eIF5A),"hypusinated eIF5A; GC7 0.1 μM to 100 μM, 48 hours, 4T1, 67NR and MCF10CA1a",consistently decreased
